Data on 3 molecules can be found in patent publication US20120071501A1, “USE OF EXTRACTS OF THE GENUS CIMICIFUGA AS ORGANOSELECTIVE MEDICINES FOR TREATING DISEASES OF THE GENITOURINARY TRACT CAUSED BY SEX HORMONES” (Bionorica AG, priority 2001, published 2012).

The test system of one test is IGF1. Description: IGF1 gene expression in the prostate of castrated male rats. Type of test: in vivo, rat.
The next test has as its system rat prostate. Description: In-vivo experiments in the rat prostate in the whole-body model. Particulars: castrated rat.
In test [1] the test system is urinary bladder of ovarectomized rats. Put plainly: Differential bladder tonus (bladder elasticity) of ovarectomized rats. The class given is in vivo, rat. As for the experimental part:
Following a three-month treatment of ovarectomized rats with Cimicifuga racemosa extract, the maximum pressure in the urinary bladder [in mm Hg] and the minimum pressure [in mm Hg] following relaxation of the bladder were determined by instillation of 1 ml of physiological saline solution.

The subject of another test is estrogen receptor-beta. Put plainly: Gene expression of estrogen receptor-beta in the prostate of male castrated rat. The class given is in vivo.
The test system of test [2] is estrogen receptor of the alpha-subtype. Put plainly: Gene expression of estrogen receptor alpha-subtype in the prostate of male castrated rat. Type of test: in vivo.
Another test has as its system estrogen receptor-alpha. Description: Expression of estrogen receptor-alpha in the urinary bladder. Type of test: in vivo, rat. The following applies: ovarectomized rats. The source says: In the bladder both the estrogen receptor ER-alpha and ER-beta are expressed.

Molecules are shown by their SMILES.

`C[C@]12CC[C@H]3[C@@H](CCC4=CC(=O)CC[C@@]43C)[C@@H]1CC[C@@H]2O` [testosterone]: the “gene expression of the growth factor IGF1 in the prostate” value in the test on IGF1 is given as “regulated up”. In addition, the “prostate regression induced by castration” value with rat prostate is listed as “could be antagonized”.
Turning to `O=C(c1ccc(OCN2CCCCC2)cc1)c1c(-c2ccc(O)cc2)sc2cc(O)ccc12` [Raloxifen], the “differential pressure between maximum and minimum pressure (bladder elasticity)” value in test [1] (highest Cimicifuga dose 400 mg/kg/d, compared with Raloxifen) is listed as “comparable”.
With `C[C@]12CC[C@@H]3c4ccc(O)cc4CC[C@H]3[C@@H]1CC[C@@H]2O` [estradiol, 17β-estradiol], the “gene expression of the estrogen receptor-beta in the prostate” value in the test with estrogen receptor-beta was “without having an effect”. Further, the “differential pressure between maximum and minimum pressure (bladder elasticity)” value in test [1] (three-month treatment, instillation of 1 ml physiological saline, in comparison with placebo controls) is “most effective substance”. Further, the “gene expression of the estrogen receptor of the alpha-subtype in the prostate” value in test [2] was “significantly inhibit”. Moreover, the “expression of the estrogen receptor-alpha in the urinary bladder” value in the test on estrogen receptor-alpha is “regulate down”.
